Reference: US20040266008A1, “Polyene polyketides, processes for their production and their use as pharmaceuticals” (Ecopia BioSciences, Inc., priority 2003, published 2004)

Legend:
S. cerevisiae (Scer) = assay: MIC broth microdilution, S. cerevisiae (Scer)
C. glabrata (Cgla) = assay: MIC broth microdilution, C. glabrata (Cgla)
C. albicans (Ctro) = assay: MIC broth microdilution, C. albicans (Ctro)
Candida sp. (Cflu) = assay: MIC broth microdilution, Candida sp. (Cflu)
C. albicans (Calb) = assay: MIC broth microdilution, C. albicans (Calb)

Row | SMILES | Minimal Inhibitory Concentrations (S. cerevisiae (Scer); 24 hrs) | Minimal Inhibitory Concentrations (S. cerevisiae (Scer); 48 hrs) | Minimal Inhibitory Concentrations (C. glabrata (Cgla); 24 hrs) | Minimal Inhibitory Concentrations (C. glabrata (Cgla); 48 hrs) | Minimal Inhibitory Concentrations (C. albicans (Ctro); 24 hrs) | Minimal Inhibitory Concentrations (C. albicans (Ctro); 48 hrs) | Minimal Inhibitory Concentrations (Candida sp. (Cflu); 24 hrs) | Minimal Inhibitory Concentrations (Candida sp. (Cflu); 48 hrs) | Minimal Inhibitory Concentrations (C. albicans (Calb); 24 hrs) | Minimal Inhibitory Concentrations (C. albicans (Calb); 48 hrs)
1 | C[C@@H]1[C@H](O)[C@@H](C)/C=C/C=C/C=C/C=C/C=C/C=C/C=C/[C@H](O[C@@H]2O[C@H](C)[C@@H](O)[C@H](N)[C@@H]2O)C[C@@H]2O[C@](O)(C[C@@H](O)C[C@@H](O)[C@H](O)CC[C@@H](O)C[C@@H](O)CC(=O)O[C@H]1C)C[C@H](O)[C@H]2C(=O)O [Amphotericin B] | 0.5 µg/mL | 1 µg/mL | 0.5 to 1 µg/mL | 1 µg/mL | 1 µg/mL | 2 µg/mL | 0.5 to 1 µg/mL | 1 µg/mL | 0.5 to 1 µg/mL | 1 µg/mL
2 | C\C(=C/C=C/C=C/CC/C=C/C(C)C(O)C(C)C(O)/C=C/C=C/C=C/C=C/C=C/C=C/CC(OS(=O)(=O)O)C(C)C(=O)CC(O)CC(O)/C=C/CC(O)CC(O)CC(O)/C=C/CC(O)CC(O)/C=C/CC(O)CC(O)CCCNC(=N)N)C(=O)O (centres unmarked) [Compound 1] | 4 µg/mL |  | 4 µg/mL |  | 4 µg/mL |  | 8 µg/mL |  | 4 µg/mL | 
3 | C\C(=C/C=C/C=C/CC/C=C/C(C)C(O)C(C)C(O)/C=C/C=C/C=C/C=C/C=C/C=C/CC(O)C(C)C(=O)CC(O)CC(O)/C=C/CC(O)CC(O)CC(O)/C=C/CC(O)CC(O)/C=C/CC(O)CC(O)CCCNC(=N)N)C(=O)O (centres unmarked) [Compound 2] |  | 4 µg/mL |  | 4 µg/mL |  | 4 µg/mL |  | 8 µg/mL |  | 4 µg/mL
